In ChEMBL document CHEMBL1140113, “Structural requirements for drug inhibition of the liver specific human organic cation transport protein 1” (J Med Chem, 2008):

target: T1, Solute carrier family 22 member 1 (Homo sapiens, UniProt O15245); test: not given; assay type: cell-based, HEK293; settings: not given
T1 sequence (O15245 whole entry): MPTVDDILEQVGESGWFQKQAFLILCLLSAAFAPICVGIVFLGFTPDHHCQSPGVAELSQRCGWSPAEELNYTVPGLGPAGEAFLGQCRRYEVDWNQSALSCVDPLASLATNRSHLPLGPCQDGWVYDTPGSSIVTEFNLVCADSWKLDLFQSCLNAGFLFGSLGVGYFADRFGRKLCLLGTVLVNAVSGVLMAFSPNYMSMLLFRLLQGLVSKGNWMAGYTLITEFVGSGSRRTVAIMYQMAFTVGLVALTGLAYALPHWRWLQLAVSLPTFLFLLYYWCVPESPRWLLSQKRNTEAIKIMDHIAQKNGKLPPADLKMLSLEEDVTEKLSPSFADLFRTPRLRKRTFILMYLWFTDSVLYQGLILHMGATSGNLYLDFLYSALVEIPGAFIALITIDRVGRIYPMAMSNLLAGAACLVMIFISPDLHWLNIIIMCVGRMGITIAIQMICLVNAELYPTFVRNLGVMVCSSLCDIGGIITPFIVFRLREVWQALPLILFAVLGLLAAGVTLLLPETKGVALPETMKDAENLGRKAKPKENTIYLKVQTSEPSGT

Row | SMILES | IC50 [µM]
1 | CCN(CC)CCNC(=O)c1cc(Cl)c(N)cc1OC [METOCLOPRAMIDE] | 94.8
2 | COc1cc2nc(N3CCN(C(=O)C4CCCO4)CC3)nc(N)c2cc1OC (configuration not stated) [TERAZOSIN] | 23.7
3 | OCCN1CCN(CCCN2c3ccccc3Sc3ccc(C(F)(F)F)cc32)CC1 [FLUPHENAZINE] | 110
4 | Clc1cccc(Cl)c1N=C1NCCN1 [CLONIDINE] | 22.6
5 | CN(C)CCC=C1c2ccccc2CCc2ccccc21 [AMITRIPTYLINE] | 16.9
6 | CN1CC[C@]23c4c5ccc(O)c4O[C@H]2[C@@H](O)C=C[C@H]3[C@H]1C5 [MORPHINE] | 28
7 | CN(C)CCCN1c2ccccc2Sc2ccc(Cl)cc21 [CHLORPROMAZINE] | 27
8 | CCCNCC(O)COc1ccccc1C(=O)CCc1ccccc1 (configuration not stated) [PROPAFENONE] | 11.1
9 | CN(C)CCCC1(c2ccc(F)cc2)OCc2cc(C#N)ccc21 (configuration not stated) [CITALOPRAM] | 18.8

target: T2, OCT1 (SLC22A1) (Homo sapiens, UniProt O15245); test: in vitro; settings: HEK293 cells that express human OCT1, probe 4-(4-(dimethylamino)styryl)-N-methylpyridinium
T2 sequence (O15245 whole entry): T1 sequence (O15245 whole entry)

Row | SMILES | inhibition at 100 µM [%]
10 | CCN(CC)CCNC(=O)c1cc(Cl)c(N)cc1OC [METOCLOPRAMIDE] | 52.3
11 | COc1cc2nc(N3CCN(C(=O)C4CCCO4)CC3)nc(N)c2cc1OC (configuration not stated) [TERAZOSIN] | 77
12 | OCCN1CCN(CCCN2c3ccccc3Sc3ccc(C(F)(F)F)cc32)CC1 [FLUPHENAZINE] | 61.9
13 | CN(C)CCC=C1c2ccccc2CCc2ccccc21 [AMITRIPTYLINE] | 78.5
14 | CN1CC[C@]23c4c5ccc(O)c4O[C@H]2[C@@H](O)C=C[C@H]3[C@H]1C5 [MORPHINE] | 67.9
15 | CN(C)CCCN1c2ccccc2Sc2ccc(Cl)cc21 [CHLORPROMAZINE] | 85.1
16 | CCCNCC(O)COc1ccccc1C(=O)CCc1ccccc1 (configuration not stated) [PROPAFENONE] | 83.8
17 | CC[C@H]1OC(=O)[C@H](C)[C@@H](O[C@H]2C[C@@](C)(OC)[C@@H](O)[C@H](C)O2)[C@H](C)[C@@H](O[C@@H]2O[C@H](C)C[C@H](N(C)C)[C@H]2O)[C@](C)(O)C[C@@H](C)C(=O)[C@H](C)[C@@H](O)[C@]1(C)O [ERYTHROMYCIN] | 14
18 | Cn1c(=O)c2[nH]cnc2n(C)c1=O [THEOPHYLLINE] | -4.4
19 | CC1=C(C(=O)O)N2C(=O)[C@@H](NC(=O)[C@H](N)c3ccccc3)[C@H]2SC1 [CEPHALEXIN ANHYDROUS] | -1.9
20 | CCOC(=O)[C@H](CCc1ccccc1)N[C@@H](C)C(=O)N1CCC[C@H]1C(=O)O | 14.6
21 | COc1ccc(CCN(C)CCCC(C#N)(c2ccc(OC)c(OC)c2)C(C)C)cc1OC (configuration not stated) | 86.4
22 | CN1[C@@H]2C[C@@H](OC(=O)[C@H](CO)c3ccccc3)C[C@H]1[C@@H]1O[C@@H]12 [SCOPOLAMINE] | 43.9
23 | O=C(O)COCCN1CCN(C(c2ccccc2)c2ccc(Cl)cc2)CC1 (configuration not stated) [CETIRIZINE] | -4.8
24 | CCC[C@@H]1C[C@@H](C(=O)N[C@@H]([C@H]2O[C@H](SC)[C@H](O)[C@@H](O)[C@H]2O)[C@H](C)Cl)N(C)C1 [CLINDAMYCIN] | 19.5
25 | COc1ccc(Cl)cc1C(=O)NCCc1ccc(S(=O)(=O)NC(=O)NC2CCCCC2)cc1 [GLYBURIDE] | 0.3
26 | C[C@H](CS)C(=O)N1CCC[C@H]1C(=O)O [CAPTOPRIL] | 0.3
27 | CC(=O)O[C@H]1C(=O)[C@@]2(C)[C@H]([C@H](OC(=O)c3ccccc3)[C@]3(O)C[C@H](OC(=O)[C@H](O)[C@@H](NC(=O)c4ccccc4)c4ccccc4)C(C)=C1C3(C)C)[C@]1(OC(C)=O)CO[C@@H]1C[C@@H]2O [PACLITAXEL] | 7.1
28 | O=C(O)c1cc(/N=N/c2ccc(S(=O)(=O)Nc3ccccn3)cc2)ccc1O [SULFASALAZINE] | -3.7
29 | CNC(=C[N+](=O)[O-])NCCSCc1ccc(CN(C)C)o1 [RANITIDINE] | 28.8
30 | O=C1NC(=O)C(c2ccccc2)(c2ccccc2)N1 [PHENYTOIN] | -2
31 | COc1cc2c(cc1O)CC[C@@H]1[C@@H]2CC[C@]2(C)[C@@H](O)CC[C@@H]12 [2-METHOXYESTRADIOL] | 74.3
32 | CC(=O)[C@@]1(O)CC[C@H]2[C@@H]3C=C(Cl)C4=CC(=O)[C@@H]5C[C@@H]5[C@]4(C)[C@H]3CC[C@@]21C [CYPROTERONE] | 61.6

Row | SMILES | inhibition at 100 µM [%]
33 | CC(C)[N+]1(C)[C@@H]2CC[C@H]1C[C@@H](OC(=O)C(CO)c1ccccc1)C2 (some centres not stated) | 43.4
34 | CCC(C)(C)C(=O)O[C@H]1C[C@@H](C)C=C2C=C[C@H](C)[C@H](CC[C@@H]3C[C@@H](O)CC(=O)O3)[C@H]21 [SIMVASTATIN] | 22.6
35 | CCCC(C)(COC(N)=O)COC(=O)NC(C)C (configuration not stated) [CARISOPRODOL] | 19.8
36 | C[C@]12CCC(=O)C=C1CC[C@@H]1[C@@H]2CC[C@]2(C)C(=O)CC[C@@H]12 [ANDROSTENEDIONE] | 65.1
37 | CN1CC(=O)NC1=N [CREATININE] | 13.3
38 | C[C@]12C[C@H](O)[C@H]3[C@@H](CCC4=CC(=O)CC[C@@]43C)[C@@H]1CC[C@@H]2C(=O)CO [CORTICOSTERONE] | 33.5
39 | O=C(O)Cc1ccccc1Nc1c(Cl)cccc1Cl [DICLOFENAC] | -3.7
40 | C[C@]12C=CC(=O)C=C1CC[C@@H]1[C@@H]2C(=O)C[C@@]2(C)[C@H]1CC[C@]2(O)C(=O)CO [PREDNISONE] | 23.3
41 | CC(=O)O[C@H]1C[C@@H]2CC[C@@H]3[C@H](CC[C@@]4(C)[C@H]3C[C@H]([N+]3(C)CCCCC3)[C@@H]4OC(C)=O)[C@@]2(C)C[C@@H]1[N+]1(C)CCCCC1 [PANCURONIUM] | -10.3
42 | CCOC(=O)N1CCC(=C2c3ccc(Cl)cc3CCc3cccnc32)CC1 [LORATADINE] | 51.8
43 | Cc1cccc(CN2CCN(C(c3ccccc3)c3ccc(Cl)cc3)CC2)c1 (configuration not stated) [MECLIZINE] | 16.4
44 | N=C(N)NCCCCN [AGMATINE] | 2.1
45 | COc1ccc(CCN(C)CCCC(C#N)(c2cc(OC)c(OC)c(OC)c2)C(C)C)cc1OC (racemic) [METHOXYVERAPAMIL] | 78.1
46 | Cn1cc[nH]c1=S [METHIMAZOLE] | 11.6
47 | C[C@](N)(Cc1ccc(O)c(O)c1)C(=O)O [METHYLDOPA] | -7.2
48 | Cc1cnc(C(=O)NCCc2ccc(S(=O)(=O)NC(=O)NC3CCCCC3)cc2)cn1 [GLIPIZIDE] | -12.7
49 | CCN(CC)CC(=O)Nc1c(C)cccc1C [LIDOCAINE] | -2.3
50 | CCN(CC)CCCC(C)Nc1ccnc2cc(Cl)ccc12 (configuration not stated) [CHLOROQUINE] | 46
51 | CCN(CC)CCNC(=O)c1ccc(NC(C)=O)cc1 [ACECAINIDE] | 13.7
52 | COc1cc([C@@H]2c3cc4c(cc3[C@@H](O[C@@H]3O[C@@H]5CO[C@@H](C)O[C@H]5[C@H](O)[C@H]3O)[C@H]3COC(=O)[C@H]23)OCO4)cc(OC)c1O [ETOPOSIDE] | 7.5
53 | COCCc1ccc(OCC(O)CNC(C)C)cc1 (configuration not stated) [METOPROLOL] | 32.4
54 | Cc1c(C)c2c(c(C)c1O)CCC(C)(COc1ccc(CC3SC(=O)NC3=O)cc1)O2 (configuration not stated) [TROGLITAZONE] | 48.2
55 | CC(C)(C)NCC(O)c1cc(O)cc(O)c1 (configuration not stated) [TERBUTALINE] | 2.6

Row | SMILES | inhibition at 100 µM [%]
56 | NC(N)=NCCCCN=C(N)N [ARCAINE] | 4.5
57 | Nc1nc(O)c2ncn(COC(CO)CO)c2n1 [GANCICLOVIR] | 10.5
58 | O=C1Nc2ccc(Cl)cc2[C@@](C#CC2CC2)(C(F)(F)F)O1 [EFAVIRENZ] | 37
59 | CC(=O)N[C@H]1[C@H]([C@H](O)[C@H](O)CO)OC(C(=O)O)=C[C@@H]1N=C(N)N [ZANAMIVIR] | 2
60 | CC(=O)CC(c1ccccc1)c1c(O)c2ccccc2oc1=O (configuration not stated) [WARFARIN] | 4
61 | CC(C)Cc1ccc(C(C)C(=O)O)cc1 (configuration not stated) [IBUPROFEN] | 6.3
62 | NS(=O)(=O)c1cc2c(cc1Cl)NCNS2(=O)=O [HYDROCHLOROTHIAZIDE] | -9.8
63 | C[C@H]1c2cccc(O)c2C(=O)C2=C(O)[C@]3(O)C(=O)C(C(N)=O)=C(O)[C@@H](N(C)C)[C@@H]3[C@@H](O)[C@@H]21 [DOXYCYCLINE] | 27.4
64 | O=P(O)(O)C(Cl)(Cl)P(=O)(O)O [CLODRONIC ACID] | 5.6
65 | CC(=O)Nc1ccc(O)cc1 [ACETAMINOPHEN] | -9.2
66 | NCCCC(N)(C(=O)O)C(F)F (configuration not stated) [EFLORNITHINE] | 5.5
67 | O=C(N[C@H](CO)[C@H](O)c1ccc([N+](=O)[O-])cc1)C(Cl)Cl [CHLORAMPHENICOL] | 1.4
68 | Cc1cc(=O)n(-c2ccccc2)n1C [ANTIPYRINE] | 20.7
69 | Cc1cn([C@H]2C[C@H](N=[N+]=[N-])[C@@H](CO)O2)c(=O)[nH]c1=O [ZIDOVUDINE] | 4.7
70 | Cc1ccc(-c2cc(C(F)(F)F)nn2-c2ccc(S(N)(=O)=O)cc2)cc1 [CELECOXIB] | 7.7
71 | CCOc1nc2cccc(C(=O)O)c2n1Cc1ccc(-c2ccccc2-c2nnn[nH]2)cc1 | 6.3
72 | Clc1ccccc1C(c1ccccc1)(c1ccccc1)n1ccnc1 [CLOTRIMAZOLE] | 69.3
73 | CN1[C@@H]2CC[C@H]1C[C@@H](OC(=O)C(CO)c1ccccc1)C2 (some centres not stated) [ATROPINE] | 76.5
74 | CN(C)C(=O)Oc1cccc([N+](C)(C)C)c1 [NEOSTIGMINE BROMIDE] | 19.4
75 | COc1ccc2c3c1O[C@H]1[C@@H](O)C=C[C@H]4[C@@H](C2)N(C)CC[C@@]341 [CODEINE] | 39.1
76 | CC(=O)N[C@@H](CS)C(=O)O [ACETYLCYSTEINE] | 15.5

same assay, conditions: hek293

Row | SMILES | inhibition at 100 µM [%]
77 | Clc1cccc(Cl)c1N=C1NCCN1 [CLONIDINE] | 65.4
78 | CN(C)CCCC1(c2ccc(F)cc2)OCc2cc(C#N)ccc21 (configuration not stated) [CITALOPRAM] | 52
79 | CN1CCC[C@H]1c1cccnc1 [NICOTINE] | -3.7
80 | C[N+](C)(C)CCO [CHOLINE] | 21.3
81 | NCCc1ccc(O)c(O)c1 [DOPAMINE] | 11.8
82 | CC(C)N(CCC(C(N)=O)(c1ccccc1)c1ccccn1)C(C)C (configuration not stated) [DISOPYRAMIDE] | 68.8
